Assay results from US11691962B2 (eXIthera Pharmaceuticals, Inc., priority 2018, dated 2023).
pIC50: −log10 of the molar value.

Tests used:
Type in all cases: biochemical
Factor Xa = Factor Xa (Homo sapiens (Human), UniProt P00742); test: Dose response assay for protease inhibitors: Factor Xa; conditions: selectivity, Factor Xa over Factor XIa
Method: (§1) • Assay buffer: 20 mM Hepes, pH 7.4; 150 mM NaCl; 0.02% Tween 20 • Compounds: 10 mM stocks in DMSO • Substrate: 20 mM Glp-Pro-Arg-AMC, 25 mg/2.3 mL H2O (store at +4° C.) [Factor XIa, thrombin, and trypsin] • 20 mM Pro-Phe-Arg-AMC (Bachem I-1295), 25 mg/2.2 mL H2O • or Boc-Leu-Gly-Arg-AMC (Bachem I-1105), 25 mg/2.07 mL H2O • (store at +4° C.) [Factor Xa] • Enzyme: Factor XIa; 0.25 μM in 50% glycerol (20 μg/mL) • Trypsin; 0.2 μM in 50% glycerol (4.8 μg/mL) • Thrombin; 0.2 μM in 50% glycerol (7.34 μg/mL) • Factor Xa; 0.2 μM in 50% glycerol (9.2 μg/mL) • These stocks are aliquoted (˜100 μL/aliquot) and stored at −20° C. Methods: • 1. Dilute the substrate to 100 μM in assay buffer (30 μL/6 mL). The enzyme is diluted to 0.5 nM just prior to use (12 μL/6 mL for Factor XIa; 15 μL/6 mL for all of the rest.) • 2. Pipette 50 μL of substrate into each well of the 96 well (12×8) microtiter plate. (Column 1 is used as the 100% activity control and receives no compound, and Column 12 is the blank and receives no enzyme.) Add an additional 46 μL to column 2. • 3. Pipette 4 μL of each compound into the appropriate well in column 2 of the plate (unknowns assayed in triplicate, standard assayed in duplicate). The final compound concentration will be […] of the stock. • 4. Serially two-fold dilute the compound by mixing the sample in column 2, removing 50 μL to the next well (column 3), mix and remove to column 4, etc. until column 11. After mixing column 11, remove 50 μL and discard. • 5. Pipette 50 μL of buffer into column 12. Initiate the reaction by adding 50 μL of enzyme solution to each well of columns 1-11 as rapidly as possible. • 6. Read the plate in a spectrophotometer (SpectraMax) at 30° C., wherein each well is measured every 60 s for 30 min. For Factor Xa assays, each well is measured every 1 min for a total of 60 min. • 7. For Factor XIa assays, the compounds are assayed, in duplicate, at 3 different starting concentrations, 20, 2, and 0.2 μM; 1:10, 1:100, and 1:1000 dilution of 10 mM stock or at 2, 0.2, and 0.02 μM; 1:100, 1:1000, and 1:10,000 dilution of 10 mM stock. Data for each concentration are combined for graphing and data fitting. • 8. Data can be used both for estimation of IC50 and for estimation of Kon.

Factor XIa = Factor XIa (Homo sapiens (Human), UniProt P03951); test: Factor XIa enzyme inhibition assay (dose response, fluorogenic AMC substrate); conditions: read-out: hFXIa IC50
Factor XIa, sequence (P03951 388-625): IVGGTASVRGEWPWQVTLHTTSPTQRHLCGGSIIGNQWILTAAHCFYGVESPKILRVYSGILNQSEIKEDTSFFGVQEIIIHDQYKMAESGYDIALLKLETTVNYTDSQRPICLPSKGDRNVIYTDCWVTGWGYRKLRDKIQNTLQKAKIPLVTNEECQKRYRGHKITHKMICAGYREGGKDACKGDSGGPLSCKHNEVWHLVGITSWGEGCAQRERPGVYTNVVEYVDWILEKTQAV
Factor XIa, sequence (P03951 19-387 partner): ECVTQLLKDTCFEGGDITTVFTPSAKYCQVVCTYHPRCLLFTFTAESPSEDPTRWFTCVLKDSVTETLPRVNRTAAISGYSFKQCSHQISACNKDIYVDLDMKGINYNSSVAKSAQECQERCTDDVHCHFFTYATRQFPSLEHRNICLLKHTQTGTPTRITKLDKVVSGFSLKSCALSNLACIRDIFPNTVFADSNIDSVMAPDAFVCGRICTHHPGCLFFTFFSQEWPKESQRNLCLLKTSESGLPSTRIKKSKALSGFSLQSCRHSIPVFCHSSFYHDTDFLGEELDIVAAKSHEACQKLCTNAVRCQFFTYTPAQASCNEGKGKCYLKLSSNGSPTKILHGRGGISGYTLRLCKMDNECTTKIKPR
In short: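 Human FXIa at 0.25 nM final with 50 μM final PyroGlu-Pro-Arg-AMC in 20 mM Hepes pH 7.4, 150 mM NaCl, 0.02% Tween 20. Two-fold serial compound dilutions; fluorescence read every minute for 30 min at 30° C. IC50 from a four-parameter Hill fit.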

Trypsin = test: Dose response assay for protease inhibitors: trypsin; conditions: selectivity, trypsin over Factor XIa
Method: as §1

Thrombin = Thrombin (Homo sapiens (Human), UniProt P00734); test: Dose response assay for protease inhibitors: thrombin; conditions: selectivity, thrombin over Factor XIa
Method: as §1

Factor Xa, sequence (P00742 235-488): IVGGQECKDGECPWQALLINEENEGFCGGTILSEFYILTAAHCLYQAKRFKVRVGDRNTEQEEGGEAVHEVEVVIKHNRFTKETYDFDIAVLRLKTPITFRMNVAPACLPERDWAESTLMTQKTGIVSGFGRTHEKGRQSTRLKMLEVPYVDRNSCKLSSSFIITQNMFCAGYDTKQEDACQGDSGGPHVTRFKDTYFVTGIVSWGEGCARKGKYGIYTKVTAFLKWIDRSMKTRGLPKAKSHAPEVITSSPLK
Factor Xa, sequence (P00742 41-179 partner): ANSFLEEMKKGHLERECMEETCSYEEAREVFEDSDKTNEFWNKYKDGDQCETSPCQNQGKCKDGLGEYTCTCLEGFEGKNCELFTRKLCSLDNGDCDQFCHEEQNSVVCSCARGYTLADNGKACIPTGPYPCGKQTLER

Compound: CC[C@@H](NC(=O)N1C(=O)[C@H](Cc2ccnc(N)c2)[C@H]1C(=O)N(C)c1nccn1C)c1cc(C)ccc1C [Compound 1-99, (2S,3R)-3-((2-aminopyridin-4-yl)methyl)-N2-(1-methyl-1H-imidazol-2-yl)-N1-((R)-1-(2,5-dimethylphenyl)propyl)-N2-methyl-4-oxoazetidine-1,2-dicarboxamide]
- Ratio: FXa/FXIa (Factor Xa): H (“H” indicates 101-1000)
- pIC50 (Factor XIa): > 8.00
- Ratio: Trypsin/FXIa (Trypsin): G (“G” indicates 1-100)
- Ratio: Thrombin/FXIa (Thrombin): H (“H” indicates 101-1000)

Compound: CC[C@@H](NC(=O)N1C(=O)[C@H](Cc2ccnc(N)c2)[C@H]1C(=O)N(C)c1nccn1C)c1ccc(C)c(C)c1 [Compound 1-100, (2S,3R)-3-((2-aminopyridin-4-yl)methyl)-N2-(1-methyl-1H-imidazol-2-yl)-N1-((R)-1-(3,4-dimethylphenyl)propyl)-N2-methyl-4-oxoazetidine-1,2-dicarboxamide]
- Ratio: FXa/FXIa (Factor Xa): H (“H” indicates 101-1000)
- pIC50 (Factor XIa): > 8.00
- Ratio: Trypsin/FXIa (Trypsin): G (“G” indicates 1-100)
- Ratio: Thrombin/FXIa (Thrombin): H (“H” indicates 101-1000)

Compound: CC[C@@H](NC(=O)N1C(=O)[C@H](Cc2ccnc(N)c2)[C@H]1C(=O)N(C)c1nccn1C)c1cc(C)ccc1Cl [Compound 1-101, (2S,3R)-3-((2-aminopyridin-4-yl)methyl)-N2-(1-methyl-1H-imidazol-2-yl)-N1-((R)-1-(2-chloro-5-methylphenyl)propyl)-N2-methyl-4-oxoazetidine-1,2-dicarboxamide]
- Ratio: FXa/FXIa (Factor Xa): H (“H” indicates 101-1000)
- pIC50 (Factor XIa): > 8.00
- Ratio: Trypsin/FXIa (Trypsin): G (“G” indicates 1-100)
- Ratio: Thrombin/FXIa (Thrombin): H (“H” indicates 101-1000)

Compound: CC[C@@H](NC(=O)N1C(=O)[C@H](Cc2ccnc(N)c2)[C@H]1C(=O)N(C)c1nccn1C)c1cc(C)ccc1F [Compound 1-102, (2S,3R)-3-((2-aminopyridin-4-yl)methyl)-N2-(1-methyl-1H-imidazol-2-yl)-N1-((R)-1-(2-fluoro-5-methylphenyl)propyl)-N2-methyl-4-oxoazetidine-1,2-dicarboxamide]
- Ratio: FXa/FXIa (Factor Xa): I (“I” indicates > 500)
- pIC50 (Factor XIa): > 8.00
- Ratio: Trypsin/FXIa (Trypsin): G (“G” indicates 1-100)
- Ratio: Thrombin/FXIa (Thrombin): H (“H” indicates 101-1000)

Compound: CC[C@@H](NC(=O)N1C(=O)[C@H](Cc2ccnc(N)c2)[C@H]1C(=O)N(C)c1nccn1C)c1ccc(C)c(Cl)c1 [Compound 1-103, (2S,3R)-3-((2-aminopyridin-4-yl)methyl)-N2-(1-methyl-1H-imidazol-2-yl)-N1-((R)-1-(3-chloro-4-methylphenyl)propyl)-N2-methyl-4-oxoazetidine-1,2-dicarboxamide]
- Ratio: FXa/FXIa (Factor Xa): H (“H” indicates 101-1000)
- pIC50 (Factor XIa): > 8.00
- Ratio: Trypsin/FXIa (Trypsin): G (“G” indicates 1-100)
- Ratio: Thrombin/FXIa (Thrombin): H (“H” indicates 101-1000)

Compound: CC[C@@H](NC(=O)N1C(=O)[C@H](Cc2cc(C)nc(N)c2)[C@H]1C(=O)N(C)c1nccn1C)c1ccc(Cl)cc1 [Compound 1-105, (2S,3R)-3-((2-amino-6-methylpyridin-4-yl)methyl)-N2-(1-methyl-1H-imidazol-2-yl)-N1-((R)-1-(4-chlorophenyl)propyl)-N2-methyl-4-oxoazetidine-1,2-dicarboxamide]
- Ratio: FXa/FXIa (Factor Xa): I (“I” indicates > 500)
- pIC50 (Factor XIa): 7.00 to 8.00
- Ratio: Trypsin/FXIa (Trypsin): G (“G” indicates 1-100)
- Ratio: Thrombin/FXIa (Thrombin): H (“H” indicates 101-1000)

Compound: CC[C@@H](NC(=O)N1C(=O)[C@H](Cc2cc(C)nc(N)c2)[C@H]1C(=O)N(C)c1nccn1C)c1ccc(F)cc1 [Compound 1-106, (2S,3R)-3-((2-amino-6-methylpyridin-4-yl)methyl)-N2-(1-methyl-1H-imidazol-2-yl)-N1-((R)-1-(4-fluorophenyl)propyl)-N2-methyl-4-oxoazetidine-1,2-dicarboxamide]
- Ratio: FXa/FXIa (Factor Xa): I (“I” indicates > 500)
- pIC50 (Factor XIa): > 8.00
- Ratio: Trypsin/FXIa (Trypsin): G (“G” indicates 1-100)
- Ratio: Thrombin/FXIa (Thrombin): H (“H” indicates 101-1000)

Compound: CC[C@@H](NC(=O)N1C(=O)[C@H](Cc2cc(C)nc(N)c2)[C@H]1C(=O)N(C)c1nccn1C)c1ccc(C)cc1 [Compound 1-107, (2S,3R)-3-((2-amino-6-methylpyridin-4-yl)methyl)-N2-(1-methyl-1H-imidazol-2-yl)-N1-((R)-1-(4-methylphenyl)propyl)-N2-methyl-4-oxoazetidine-1,2-dicarboxamide]
- Ratio: FXa/FXIa (Factor Xa): I (“I” indicates > 500)
- pIC50 (Factor XIa): 7.00 to 8.00
- Ratio: Trypsin/FXIa (Trypsin): G (“G” indicates 1-100)
- Ratio: Thrombin/FXIa (Thrombin): H (“H” indicates 101-1000)

Compound: CC[C@@H](NC(=O)N1C(=O)[C@H](Cc2cc(C)nc(N)c2)[C@H]1C(=O)N(C)c1nccn1C)c1ccc(C)c(C)c1 [Compound 1-109, (2S,3R)-3-((2-amino-6-methylpyridin-4-yl)methyl)-N2-(1-methyl-1H-imidazol-2-yl)-N1-((R)-1-(3,4-dimethylphenyl)propyl)-N2-methyl-4-oxoazetidine-1,2-dicarboxamide]
- Ratio: FXa/FXIa (Factor Xa): H (“H” indicates 101-1000)
- pIC50 (Factor XIa): > 8.00
- Ratio: Trypsin/FXIa (Trypsin): G (“G” indicates 1-100)
- Ratio: Thrombin/FXIa (Thrombin): H (“H” indicates 101-1000)

Compound: CC[C@@H](NC(=O)N1C(=O)[C@H](Cc2cc(C)nc(N)c2)[C@H]1C(=O)N(C)c1nccn1C)c1cc(C)ccc1Cl [Compound 1-111, (2S,3R)-3-((2-amino-6-methylpyridin-4-yl)methyl)-N2-(1-methyl-1H-imidazol-2-yl)-N1-((R)-1-(2-chloro-5-methylphenyl)propyl)-N2-methyl-4-oxoazetidine-1,2-dicarboxamide]
- Ratio: FXa/FXIa (Factor Xa): H (“H” indicates 101-1000)
- pIC50 (Factor XIa): > 8.00
- Ratio: Trypsin/FXIa (Trypsin): G (“G” indicates 1-100)
- Ratio: Thrombin/FXIa (Thrombin): H (“H” indicates 101-1000)

Compound: CC[C@@H](NC(=O)N1C(=O)[C@H](Cc2cc(C)nc(N)c2)[C@H]1C(=O)N(C)c1nccn1C)c1cc(C)ccc1F [Compound 1-112, (2S,3R)-3-((2-amino-6-methylpyridin-4-yl)methyl)-N2-(1-methyl-1H-imidazol-2-yl)-N1-((R)-1-(2-fluoro-5-methylphenyl)propyl)-N2-methyl-4-oxoazetidine-1,2-dicarboxamide]
- Ratio: FXa/FXIa (Factor Xa): I (“I” indicates > 500)
- pIC50 (Factor XIa): 7.00 to 8.00
- Ratio: Trypsin/FXIa (Trypsin): G (“G” indicates 1-100)
- Ratio: Thrombin/FXIa (Thrombin): H (“H” indicates 101-1000)

Compound: CC[C@@H](NC(=O)N1C(=O)[C@H](Cc2cc(C)nc(N)c2)[C@H]1C(=O)N(C)c1nccn1C)c1ccc(C)c(Cl)c1 [Compound 1-113, (2S,3R)-3-((2-amino-6-methylpyridin-4-yl)methyl)-N2-(1-methyl-1H-imidazol-2-yl)-N1-((R)-1-(3-chloro-4-methylphenyl)propyl)-N2-methyl-4-oxoazetidine-1,2-dicarboxamide]
- Ratio: FXa/FXIa (Factor Xa): H (“H” indicates 101-1000)
- pIC50 (Factor XIa): > 8.00
- Ratio: Trypsin/FXIa (Trypsin): G (“G” indicates 1-100)
- Ratio: Thrombin/FXIa (Thrombin): H (“H” indicates 101-1000)

Compound: CC[C@@H](NC(=O)N1C(=O)[C@H](Cc2ccnc(N)c2)[C@H]1C(=O)N(C)c1nccn1C)c1ccc(C)cc1C [Compound 1-114, (2S,3R)-3-((2-aminopyridin-4-yl)methyl)-N2-(1-methyl-1H-imidazol-2-yl)-N1-((R)-1-(2,4-dimethylphenyl)propyl)-N2-methyl-4-oxoazetidine-1,2-dicarboxamide]
- Ratio: FXa/FXIa (Factor Xa): H (“H” indicates 101-1000)
- pIC50 (Factor XIa): > 8.00
- Ratio: Trypsin/FXIa (Trypsin): G (“G” indicates 1-100)
- Ratio: Thrombin/FXIa (Thrombin): H (“H” indicates 101-1000)

Compound: CC[C@@H](NC(=O)N1C(=O)[C@H](Cc2ccnc(N)c2)[C@H]1C(=O)N(C)c1ccn(C)n1)c1cc(F)ccc1F [Compound 1-123, (2S,3R)-3-((2-aminopyridin-4-yl)methyl)-N2-(1-methyl-1H-pyrazol-3-yl)-N1-((R)-1-(2,5-difluorophenyl)propyl)-N2-methyl-4-oxoazetidine-1,2-dicarboxamide]
- Ratio: FXa/FXIa (Factor Xa): I (“I” indicates > 500)
- pIC50 (Factor XIa): > 8.00
- Ratio: Trypsin/FXIa (Trypsin): G (“G” indicates 1-100)
- Ratio: Thrombin/FXIa (Thrombin): H (“H” indicates 101-1000)
